In patent US20260262643A1, “HERBICIDAL BENZOXAZINES” (FMC CORPORATION, priority 2022, published 2026):

Tests used:
barnyardgrass [1] = test: Test A preemergence; type: in vivo, Echinochloa crusgalli; conditions: 1000 g ai/ha, 0 to 100 scale (0 no effect, 100 complete control), 10 days
Excerpt: (§1) Seeds of plant species selected from barnyardgrass (Echinochloa crusgalli), blackgrass (Alopecurus myosuroides), corn (Zea mays), foxtail, giant (giant foxtail, Setaria faberi), goosegrass (Eleusine indica), kochia (Bassia scoparia), oat, wild (wild oat, Avena fatua), pigweed, palmer (palmer amaranth, palmer pigweed, Amaranthus palmeri), Pigweed, Redroot (redroot pigweed, Amaranthus retroflexus), ragweed (common ragweed, Ambrosia artemisiifolia), ryegrass, Italian (italian ryegrass, Lolium multiflorum), soybean (Glycine max), and wheat (Triticum aestivum) were planted into a blend of loam soil and sand and treated preemergence with a directed soil spray using test chemicals formulated in a non-phytotoxic solvent mixture which included a surfactant. At the same time, plants selected from these crops and weed species and also galium (catchweed bedstraw, Galium aparine) and horseweed (Erigeron canadensis) were planted in pots containing the same blend of loam soil and sand and treated with postemergence applications of test chemicals formulated in the same manner. Plants ranged in height from 2 to 10 cm and were in the one- to two-leaf stage for the postemergence treatment. Treated plants and untreated controls were maintained in a greenhouse for 10 days, after which time all treated plants were compared to untreated controls and visually evaluated for injury. Plant response ratings, summarized in Table A, are based on a 0 to 100 scale where 0 is no effect and 100 is complete control. A dash (-) response means no test result.

horseweed = test: Test A postemergence; type: in vivo, Erigeron canadensis; conditions: 1000 g ai/ha, Postemergence; 0 to 100 scale
Procedure, shortened: (§2)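 Seeds in loam–sand blend received a directed preemergence soil spray of compound in non-phytotoxic solvent with surfactant; postemergence plants (2–10 cm, one- to two-leaf stage) were sprayed with the same formulation. After 10 days in greenhouse, injury was rated visually versus untreated controls, 0 (no effect) to 100 (complete control).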

ryegrass, Italian [2] = test: Test A preemergence; type: in vivo, Lolium multiflorum; conditions: 1000 g ai/ha, 0 to 100 scale (0 no effect, 100 complete control), 10 days
Procedure, shortened: as §2

pigweed, palmer [3] = test: Test A postemergence; type: in vivo, Amaranthus palmeri; conditions: 1000 g ai/ha, Postemergence; 0 to 100 scale
Procedure, shortened: as §2

ragweed [4] = test: Test A postemergence; type: in vivo, Ambrosia artemisiifolia; conditions: 1000 g ai/ha, Postemergence; 0 to 100 scale
Procedure, shortened: as §2

foxtail, giant [5] = test: Test A preemergence; type: in vivo, Setaria faberi; conditions: 1000 g ai/ha, 0 to 100 scale (0 no effect, 100 complete control), 10 days
Procedure, shortened: as §2

blackgrass [6] = test: Test A postemergence; type: in vivo, Alopecurus myosuroides; conditions: 1000 g ai/ha, Postemergence; 0 to 100 scale
Procedure, shortened: as §2

blackgrass [7] = test: Test A preemergence; type: in vivo, Alopecurus myosuroides; conditions: 1000 g ai/ha, 0 to 100 scale (0 no effect, 100 complete control), 10 days
Procedure, shortened: as §2

galium = test: Test A postemergence; type: in vivo, Galium aparine; conditions: 1000 g ai/ha, Postemergence; 0 to 100 scale
Procedure, shortened: as §2

ragweed [8] = test: Test A preemergence; type: in vivo, Ambrosia artemisiifolia; conditions: 1000 g ai/ha, 0 to 100 scale (0 no effect, 100 complete control), 10 days
Procedure, shortened: as §2

pigweed, palmer [9] = test: Test A preemergence; type: in vivo, Amaranthus palmeri; conditions: 1000 g ai/ha, 0 to 100 scale (0 no effect, 100 complete control), 10 days
Procedure, shortened: as §2

barnyardgrass [10] = test: Test A postemergence; type: in vivo, Echinochloa crusgalli; conditions: 1000 g ai/ha, Postemergence; 0 to 100 scale
Excerpt: as §1

foxtail, giant [11] = test: Test A postemergence; type: in vivo, Setaria faberi; conditions: 1000 g ai/ha, Postemergence; 0 to 100 scale
Procedure, shortened: as §2

kochia [12] = test: Test A postemergence; type: in vivo, Bassia scoparia; conditions: 1000 g ai/ha, Postemergence; 0 to 100 scale
Procedure, shortened: as §2

ryegrass, Italian [13] = test: Test A postemergence; type: in vivo, Lolium multiflorum; conditions: 1000 g ai/ha, Postemergence; 0 to 100 scale
Procedure, shortened: as §2

kochia [14] = test: Test A preemergence; type: in vivo, Bassia scoparia; conditions: 1000 g ai/ha, 0 to 100 scale (0 no effect, 100 complete control), 10 days
Procedure, shortened: as §2

Cc1cccc2c1O[C@@H](C)CN2C(=O)c1cccc(-n2cc(F)cn2)c1 [Compound 131]
10: Plant response rating, Barnyardgrass (barnyardgrass [1]) | Plant response rating, Blackgrass (blackgrass [7]) | Plant response rating, Barnyardgrass (barnyardgrass [10]) | Plant response rating, Foxtail, Giant (foxtail, giant [11])
20: Plant response rating, Galium (galium)
40: Plant response rating, Kochia (kochia [12])
60: Plant response rating, Ryegrass, Italian (ryegrass, Italian [2]) | Plant response rating, Foxtail, Giant (foxtail, giant [5])
0: Plant response rating, Horseweed (horseweed) | Plant response rating, Pigweed, Palmer (pigweed, palmer [3]) | Plant response rating, Ragweed (ragweed [4]) | Plant response rating, Blackgrass (blackgrass [6]) | Plant response rating, Ragweed (ragweed [8]) | Plant response rating, Pigweed, Palmer (pigweed, palmer [9]) | Plant response rating, Ryegrass, Italian (ryegrass, Italian [13]) | Plant response rating, Kochia (kochia [14])

Cc1cccc2c1O[C@@H](C)CN2C(=O)c1cccc(-n2cc(C(F)(F)F)cn2)c1 [Compound 130]
0: Plant response rating, Horseweed (horseweed) | Plant response rating, Ryegrass, Italian (ryegrass, Italian [2]) | Plant response rating, Pigweed, Palmer (pigweed, palmer [3]) | Plant response rating, Ragweed (ragweed [4]) | Plant response rating, Foxtail, Giant (foxtail, giant [5]) | Plant response rating, Blackgrass (blackgrass [6]) | Plant response rating, Galium (galium) | Plant response rating, Ragweed (ragweed [8]) | Plant response rating, Pigweed, Palmer (pigweed, palmer [9]) | Plant response rating, Barnyardgrass (barnyardgrass [10]) | Plant response rating, Foxtail, Giant (foxtail, giant [11]) | Plant response rating, Kochia (kochia [12]) | Plant response rating, Ryegrass, Italian (ryegrass, Italian [13]) | Plant response rating, Kochia (kochia [14])
10: Plant response rating, Barnyardgrass (barnyardgrass [1]) | Plant response rating, Blackgrass (blackgrass [7])

CCOC(=O)c1cnn(-c2cccc(C(=O)N3C[C@H](C)Oc4c(C)cccc43)c2)c1 [Compound 133]
80: Plant response rating, Foxtail, Giant (foxtail, giant [5])
0: Plant response rating, Horseweed (horseweed) | Plant response rating, Blackgrass (blackgrass [6]) | Plant response rating, Blackgrass (blackgrass [7]) | Plant response rating, Kochia (kochia [14])
20: Plant response rating, Barnyardgrass (barnyardgrass [10])
40: Plant response rating, Ragweed (ragweed [4]) | Plant response rating, Pigweed, Palmer (pigweed, palmer [9]) | Plant response rating, Kochia (kochia [12])
30: Plant response rating, Pigweed, Palmer (pigweed, palmer [3]) | Plant response rating, Ragweed (ragweed [8]) | Plant response rating, Foxtail, Giant (foxtail, giant [11])
70: Plant response rating, Ryegrass, Italian (ryegrass, Italian [2])
60: Plant response rating, Barnyardgrass (barnyardgrass [1]) | Plant response rating, Galium (galium) | Plant response rating, Ryegrass, Italian (ryegrass, Italian [13])

Cc1cccc2c1O[C@@H](C)CN2C(=O)c1cccc(-n2cc(Cl)cn2)c1 [Compound 132]
20: Plant response rating, Kochia (kochia [12])
0: Plant response rating, Horseweed (horseweed) | Plant response rating, Ryegrass, Italian (ryegrass, Italian [2]) | Plant response rating, Pigweed, Palmer (pigweed, palmer [3]) | Plant response rating, Ragweed (ragweed [4]) | Plant response rating, Foxtail, Giant (foxtail, giant [5]) | Plant response rating, Blackgrass (blackgrass [6]) | Plant response rating, Blackgrass (blackgrass [7]) | Plant response rating, Galium (galium) | Plant response rating, Ragweed (ragweed [8]) | Plant response rating, Pigweed, Palmer (pigweed, palmer [9]) | Plant response rating, Barnyardgrass (barnyardgrass [10]) | Plant response rating, Ryegrass, Italian (ryegrass, Italian [13]) | Plant response rating, Kochia (kochia [14])
10: Plant response rating, Barnyardgrass (barnyardgrass [1]) | Plant response rating, Foxtail, Giant (foxtail, giant [11])

Cc1cccc2c1O[C@@H](C)CN2C(=O)c1cccc(-n2cc(C#N)cn2)c1 [Compound 134]
30: Plant response rating, Barnyardgrass (barnyardgrass [1]) | Plant response rating, Pigweed, Palmer (pigweed, palmer [3])
50: Plant response rating, Ragweed (ragweed [8]) | Plant response rating, Foxtail, Giant (foxtail, giant [11]) | Plant response rating, Kochia (kochia [12])
10: Plant response rating, Barnyardgrass (barnyardgrass [10])
70: Plant response rating, Foxtail, Giant (foxtail, giant [5])
20: Plant response rating, Galium (galium) | Plant response rating, Ryegrass, Italian (ryegrass, Italian [13]) | Plant response rating, Kochia (kochia [14])
40: Plant response rating, Blackgrass (blackgrass [7])
80: Plant response rating, Ryegrass, Italian (ryegrass, Italian [2])
0: Plant response rating, Horseweed (horseweed) | Plant response rating, Ragweed (ragweed [4]) | Plant response rating, Blackgrass (blackgrass [6])
90: Plant response rating, Pigweed, Palmer (pigweed, palmer [9])
